Consider four compounds from US8466127B2, “Pegylated and fatty acid grafted chitosan oligosaccharide, synthesis method and application for drug delivery system” (Zhejiang University, priority 2008, dated 2013).

In brackets after ≈: the same amount, converted by molar mass. Read-outs that look alike come from different tables or passages of the source.

By IC50 is commonly meant the concentration that gives 50% inhibition.

The test system of one test is hepatoma cell HepG2. In words: MTT assay, mitomycin C preparations. As to conditions: HepG2, 48 h, mitomycin C solution or mitomycin C-loaded micelle of the named carrier. It counts as cell-based. The method, then:
Cell survival rate was determined by MTT assay. […] After incubation for 48 h, 60 μL of MTT solution was added to each well followed by incubation for 4 h. After that, the supernatant was discarded, and the cells were washed twice with PBS solution, prior to adding 400 μL DMSO to each well to terminate the reaction. After the culture plates were given a horizontal vibration for 10 min, the absorbance at the wavelength of 570 nm was measured in ELSA meter, and the cell survival rate was calculated according to the following formula: Cell survival rate(%)=A570(sample)/A570(control)×100% Wherein, A570 (sample) is the absorbance of cells adding with free drug or drug-loaded micelle, A570 (control) is the absorbance of control cells.
A general note: Formazan colour is commonly taken as a measure of viable cells.

Test [1] relates to drug-resistant cell SKOV-3/ST30. In words: MTT assay, paclitaxel preparation, drug-resistant cells. It counts as cell-based. As to conditions: Homo sapiens, SK-OV-3, 48 h. The method, then: (§1) Specifically, the ovarian cancer cell SKOV-3 and its drug-resistant cell SKOV-3/ST30 used as the model cells were cultured in 96-well culture plate. 100 μL culture solution containing 5×10^3 SKOV-3 or SKOV-3/ST30 cells was added to each well and cultured for 24 h in 37° C., 5% CO2 incubator. […] A repeated well of each above group was set. The cells were cultured in normal DMEM medium for 48. After 20 μL of 5 mg/mL methylthiazoletetrazolium (MTT) solution was added to each well, the cells was re-cultured in 37° C., 5% CO2 incubator for 4 h, and then the supernatant was discarded. By adding 150 μL dimethyl sulfoxide to each well, a multi-functional microplate reader was used to measure the absorbance, and then the cell inhibition ratio was calculated according to the following formula: Cell inhibition ratio %=(absorbance of control group−absorbance of experimental group)/absorbance of control group×100%

Test [2] relates to human lung cancer cell A549. In words: MTT assay, paclitaxel and hydroxycamptothecin preparations. It is filed as cell-based. As to conditions: A549, 48 h.
Method: Specifically, the human lung cancer cell A549 used as the model was cultured in 96-well culture plate. 100 μL cell culture solution containing 5×10^3 A549 cells was added to each well and cultured for 24 h in 37° C., 5% CO2 incubator. […] A repeated well of each above group was set. The cells were cultured in normal DMEM medium for 48. After 20 μL of 5 mg/mL methylthiazoletetrazolium (MTT) solution was added to each well, the cells was re-cultured in 37° C., 5% CO2 incubator for 4 h, and then the supernatant was discarded. By adding 150 μL dimethyl sulfoxide to each well, a multi-functional microplate reader was used to measure the absorbance, and then the cell inhibition ratio was calculated according to the following formula: Cell inhibition ratio %=(absorbance of control group−absorbance of experimental group)/absorbance of control group×100%
The subject of test [3] is ovarian cancer cell SKOV-3. As to the kind of experiment: MTT assay, paclitaxel preparation, sensitive cells. Particulars: Homo sapiens, SK-OV-3, 48 h. It is filed as cell-based. The method, then:
as §1

Test [4] has as its system uterine cervix cancer cell Hela. As to the kind of experiment: MTT assay, adriamycin preparation. It is filed as cell-based. Particulars: Homo sapiens, 48 h. As for the experimental part:
Subsequently, the solution was transferred into a volumetric flask to set the total volume to 50 mL with distilled water, and then 1 mg/mL micelle solution was obtained. […] After stirred at room temperature for 3 h, the solution was dialyzed for 24 h with distilled water in dialysis bag with the molecular weight of 3,500. Then the dialysis concentrate solution was centrifuged at 5000 rpm for 5 min to remove the dialyzed hydrophobic anticancer drugs.
Subsequently, the evaluation of antitumor efficacy was conducted. Specifically, the uterine cervix cancer cell Hela used as the model was cultured in 96-well culture plate. 100 μL cell culture solution containing 5×10^3 Hela cells was added to each well and cultured for 24 h in 37° C., 5% CO2 incubator. […] A repeated well of each above group was set. The cells were cultured in normal DMEM medium for 48. After 20 μL of 5 mg/mL methylthiazoletetrazolium (MTT) solution was added to each well, the cells was re-cultured in 37° C., 5% CO2 incubator for 4 h, and then the supernatant was discarded. By adding 150 μL dimethyl sulfoxide to each well, a multi-functional microplate reader was used to measure the absorbance, and then the cell inhibition ratio was calculated according to the following formula: Cell inhibition ratio(%)=(absorbance of control group−absorbance of experimental group)/absorbance of control group×100%

The next test has as its system QGY tumor. In words: In vivo gene therapy, tumor inhibition. Particulars: Nude mouse with QGY tumor, 2 mg/kg once, successive administration for 7 days. The method, then: PEDF was taken as the theoretical gene, and the drug-loaded graft micelle was prepared.
Test [5] has as its system drug-resistant cell (MCF-7-adr). As to the kind of experiment: MTT assay, adriamycin preparation, drug-resistant cells. It counts as cell-based. As to conditions: Homo sapiens, NCI/ADR-RES, 48 h. As for the experimental part:
as §1, with “the breast carcinoma” for “the ovarian cancer”, “cell (MCF-7)” for “cell SKOV-3”, “cell (MCF-7-adr)” for “cell SKOV-3/ST30”, “5×10^3 MCF-7” for “5×10^3 SKOV-3”, “or MCF-7-adr” for “or SKOV-3/ST30”

Test [6] concerns breast carcinoma cell (MCF-7). As to the kind of experiment: MTT assay, adriamycin preparation, sensitive cells. It is filed as cell-based. Particulars: Homo sapiens, MCF7, 48 h. The method, then:
as §1, with “the breast carcinoma” for “the ovarian cancer”, “cell (MCF-7)” for “cell SKOV-3”, “cell (MCF-7-adr)” for “cell SKOV-3/ST30”, “5×10^3 MCF-7” for “5×10^3 SKOV-3”, “or MCF-7-adr” for “or SKOV-3/ST30”

For the compound `CO[C@@]12[C@H](COC(N)=O)C3=C(C(=O)C(C)=C(N)C3=O)N1C[C@@H]1N[C@@H]12` [Control example, mitomycin C], the IC50 with hepatoma cell HepG2 stood at 1.97 µg/mL (≈ 5.89 µM).

For the compound `CC(=O)O[C@H]1C(=O)[C@@]2(C)[C@H]([C@H](OC(=O)c3ccccc3)[C@]3(O)C[C@H](OC(=O)[C@H](O)[C@@H](NC(=O)c4ccccc4)c4ccccc4)C(C)=C1C3(C)C)[C@]1(OC(C)=O)CO[C@@H]1C[C@@H]2O` [taxol solution, paclitaxel], the IC50 in test [1] came to 10.2 ± 0.23 µg/mL (≈ 12 µM); in test [2] (MTT, read-out: IC50) it was 3.2 µg/mL (≈ 3.75 µM); in test [3], 0.45 ± 0.05 µg/mL (≈ 0.527 µM).

For `CC[C@@]1(O)C(=O)OCc2c1cc1n(c2=O)Cc2cc3cc(O)ccc3nc2-1` [hydeoxycamptothecin injection, hydroxycamptothecin], the midpoint of inhibition in test [2], the IC50, lay at 8.6 µg/mL (≈ 23.6 µM).

With `COc1cccc2c1C(=O)c1c(O)c3c(c(O)c1C2=O)C[C@@](O)(C(=O)CO)C[C@@H]3O[C@H]1C[C@H](N)[C@H](O)[C@H](C)O1` [adriamycin solution, adriamycin], the figures for the IC50 in test [4], in test [5] and in test [6] were 1.7 µg/mL (≈ 3.13 µM), 24.8 µg/mL (≈ 45.6 µM) and 0.48 µg/mL (≈ 0.883 µM), respectively. In addition, the “tumor inhibition ratio (positive control)” value in the test with QGY tumor was 78.85%.
